Key:
[1] = Solid stability of crystal I (storage, chemical purity by HPLC); type: physicochemical; settings: stored at 40° C. (humidity not controlled), 40° C. (humidity 75%) and 60° C. (humidity not controlled) for 4 weeks, all conditions
Method: (iii) High-Performance Liquid Chromatography
Measurement by high-performance liquid chromatography was performed under the following conditions.
Mobile Phase A: 10 mM phos. Buffer (pH6.3)/acetonitrile (95:5)
Mobile Phase B: acetonitrile
Column: Gemini C18 (4.6x 150 mm, 3 μm)/Phenomenex
(§1) Crystal I of compound 1 was stored at 40° C. (humidity is not controlled), 40° C. (humidity 75%), and 60° C. (humidity is not controlled) for 4 weeks. Thereafter, the chemical purity was measured by high-performance liquid chromatography, and the change was 0.5% or less under all conditions.

[2] = Differential scanning calorimetry (phase transition on heating); type: physicochemical; settings: crystal I of Example 1; temperature increased
Method: (ii) Differential Scanning calorimetry Measurement (DSC Measurement)
DSC measurement was performed under the following conditions.
Device: METTLER TOLEDO: DSC1 STAR System
Sample Container: made of aluminum
Temperature Range: 25 to 400° C.
Temperature Increase Rate: 10° C./min
Atmospheric Gas: Nitrogen
Nitrogen Gas Flow: 30 ml/min
as §1

[3] = Oral absorbability in rats (plasma concentration of compound 1); type: in vivo; settings: 30 mg/kg, male Sprague Dawley rats
Method: Crystal I of compound 1 was suspended in a 0.5% HPMC aqueous solution, and orally administered to male Sprague Dawley rats which were supplied from Charles River Laboratories Japan, Inc. in a dosage of 30 mg/kg. After 1, 2, 4, 6, 8, and 24 hours from administration, blood of each rat was collected from the left jugular vein, and the concentration of compound 1 in plasma was measured.

[4] = Dynamic vapor sorption (DVS) system analysis; type: physicochemical
Method: Dynamic vapor sorption (DVS) system analysis was performed under the following conditions.
Apparatus: VTI SA+(manufactured by TA Instruments Inc.)
Drying temperature: 60° C.
Drying equilibrium: Within the range not exceeding 300 minutes, the sample was confirmed not to decrease by 0.01 wt % in 5 minutes
Measurement temperature: 25° C.
Humidification equilibrium: Within the range not exceeding 120 minutes, the sample was confirmed not to increase by 0.01 wt % in 5 minutes
Relative Humidity Program: An increase by 5% RH from 5% RH to 95% RH and a decrease by 5% RH from 95% RH to 5% RH
A dedicated quartz holder was filled with 10 to 15 mg of crystal I of compound 1, and the weight of each sample at each humidity was continuously measured and recorded under the conditions described above. The device and data processing were handled in accordance with the method and procedure instructed for each device.

Cn1nc2ccc(-c3c[nH]c4nc(N5[C@H]6CC[C@@H]5[C@H](N)C6)n(C)c(=O)c34)c(Cl)c2c1Cl (single isomer, unassigned) [Crystal I]
change of chemical purity after storage [1]: ≤ 0.5% | phase transition peak in DSC measurement [2]: no peak indicating a phase transition | oral absorbability (plasma concentration reached) ([3]; 1-24 hours after administration): achieved a sufficient concentration that provides a medicinal effect | Cmax ([3]; rat, suspended in 0.5% HPMC aqueous solution, plasma): 3.5 µM | AUC(0-t) ([3]; rat, suspended in 0.5% HPMC aqueous solution, plasma, read-out: AUC0-24): 37 µM·h | change in weight due to changes in humidity (DVS) ([4]; 25° C., 5% RH to 95% RH and back to 5% RH): no changes in weight | powder X-ray crystal analysis before and after moisture adsorption and desorption ([4]; before and after DVS moisture adsorption and desorption): did not change

From patent publication US20230322812A1, “CRYSTALLINE FORM OF HETEROBICYCLIC COMPOUND” (TAIHO PHARMACEUTICAL CO., LTD., priority 2020, published 2023)
